The values that follow come from patent US11351151B2, “Compound having anticancer activity and preparation method and application” (3D Medicines (Beijing) Co., Ltd., priority 2016, dated 2022).

In general, IC50 refers to the concentration that gives 50% inhibition. Higher therefore signals weaker potency.

Common to all, as to test: Cell proliferation assay (Alamar Blue)
Common to all, as to format: cell-based

Experiment [1] deals with DU145. As to conditions: Homo sapiens, DU-145, 144 h; DU145 tumor cell line; 6 days. Here is the method:
(§1) 1. Instruments and Materials • Thermo 311 CO2 incubator; Haier biosafety cabinet; Molecular Devices microplate reader; Xiangyi brand L530 desktop low speed centrifuge; Olympus IX51 inverted fluorescence microscope, DMEM, RPMI 1640, MEM, DMEM/F12 1:1 medium, Fetal bovine serum, 0.25% trypsin solution, phosphate buffer (Thermo Fisher Shanghai Co., Ltd.); sigma dimethyl sulfoxide (DMSO), resazurin; 54 commercial tumor cell lines (including 26 liver cancer cell lines). Experimental drugs: compounds 1-12 and active drug Linifanib; chemotherapeutic drug Doxorubicin (HY-15142; Shanghai Qianyuan Biomedical Technology Co., Ltd.).
(§2) 2. Experimental Methods • 2.1 Cultivation of different cell lines • 54 cell lines were cultured in a culture medium containing fetal bovine serum and placed in a 5% CO 2 incubator at 37° C. for incubation. The cells were all grown in an adherent state, and the growth was observed under an inverted microscope, and subculture was performed when the cell confluence rate reached 80%-90%. The proportion and quantity of passage were determined by experimental needs. The ratio of subculture of this cell line was generally 1:2^˜1:3. • 2.2 inhibition effect on the proliferation of different tumor cell lines • Cell test: 54 cell lines in logarithmic growth phase were inoculated in 96-well culture plates at 500^˜1×10^4/well (the optimal seeding density of each cell line was determined in pre-experiment), After incubating at 37° C. for 4 h in a 5% CO2 humidification incubator, added 10 μL of compounds 1-12 or Linifanib to each well, and tested 9 drug concentration gradients for each compound (diluted from the highest concentration of the test by 3.16 times). The solubility of each compound was different at a starting concentration of 30 or 100 μM, respectively. The QC reference compound Doxorubicin was added simultaneously to each cell line test, and the final drug concentrations were 10, 3.16, 1, 0.31, 0.1, 0.03, 0.01, 0.003, and 0.001 μM, respectively. In addition, a positive control group (100% inhibition) and a negative control group (0% inhibition) were set at the same time. The drug group was repeated for 2 wells per concentration, and the positive control group and the negative control group were repeated for 6 wells. After the culture was continued for 6 days in the incubator, AlamarBlue test operation was followed; • AlamarBlue test procedure: Incubated with 10 μL of AlamarBlue reagent per well for 1-4 h, shook for 1-2 min, MD microplate reader EX: 560 nm, EM: 590 nm wavelength to measure fluorescence, recorded the results, calculated the cell inhibition rate of the compound of the invention. Cell inhibition rate (%)=(A0% inhibition−A administration)/(A0% inhibition−A100% inhibition)×100%, and then using the method of nonlinear regression using Graph Pad Prism 5.0 or MATILAB software (usually using four parameters) to graph and obtain a drug dose response curve to obtain an IC50 value of the compound of the present invention acting on a cancer cell line.

The test system of experiment [2] is MDA-MB-435S. As to conditions: Homo sapiens, 144 h; MDA-MB-435S tumor cell line; 6 days. Here is the method: as §1, §2
The subject of experiment [3] is HLE. As to conditions: Homo sapiens, 144 h; HLE liver cancer cell line; 6 days. On the procedure: as §1, §2
For experiment [4], the system named is SNU886. As to conditions: SNU-886, 144 h; SNU886 liver cancer cell line; 6 days. On the procedure: as §1, §2
For experiment [5], the system named is HLF. As to conditions: 144 h; HLF liver cancer cell line; 6 days. Here is the method:
as §1, §2

Experiment [6] deals with JHH6. As to conditions: 144 h; JHH6 liver cancer cell line; 6 days. On the procedure: as §1, §2
The subject of experiment [7] is HuTu80. As to conditions: Homo sapiens, 144 h; HuTu80 tumor cell line; 6 days. On the procedure:
as §1, §2

Experiment [8] concerns SW620. As to conditions: Homo sapiens, SW-620, 144 h; SW620 tumor cell line; 6 days. Here is the method:
as §1, §2

Experiment [9] deals with K562. As to conditions: Homo sapiens, 144 h; K562 tumor cell line; 6 days. On the procedure:
as §1, §2

Experiment [10] deals with NCl-H2170. As to conditions: 144 h; NCl-H2170 tumor cell line; 6 days. On the procedure: as §1, §2
Experiment [11] concerns JHH4. As to conditions: JHH-4, 144 h; JHH4 liver cancer cell line; 6 days. Here is the method:
as §1, §2

Experiment [12] relates to MDA-MB-231. As to conditions: Homo sapiens, 144 h; MDA-MB-231 tumor cell line; 6 days. Here is the method: as §1, §2
The test system of experiment [13] is SNU387. As to conditions: Homo sapiens, SNU-387, 144 h; SNU387 liver cancer cell line; 6 days. On the procedure: as §1, §2
Experiment [14] deals with NCl-H1648. As to conditions: 144 h; NCl-H1648 tumor cell line; 6 days. On the procedure:
as §1, §2

Experiment [15] deals with NCl-H661. As to conditions: 144 h; NCl-H661 tumor cell line; 6 days. Here is the method: as §1, §2
Experiment [16] deals with TE-6. As to conditions: Homo sapiens, 144 h; TE-6 tumor cell line; 6 days. Here is the method: as §1, §2
Experiment [17] concerns NCl-H716. As to conditions: 144 h; NCl-H716 tumor cell line; 6 days. Here is the method: as §1, §2
The subject of experiment [18] is MG63. As to conditions: Homo sapiens, MG-63, 144 h; MG63 tumor cell line; 6 days. Here is the method: as §1, §2
Experiment [19] relates to HT55. As to conditions: Homo sapiens, 144 h; HT55 tumor cell line; 6 days. Here is the method:
as §1, §2

Experiment [20] deals with MFM-223. As to conditions: Homo sapiens, 144 h; MFM-223 tumor cell line; 6 days. Here is the method:
as §1, §2

The test system of experiment [21] is DLD1. As to conditions: Homo sapiens, DLD-1, 144 h; DLD1 tumor cell line; 6 days. On the procedure:
as §1, §2

The subject of experiment [22] is HUH7. As to conditions: Homo sapiens, Huh-7, 144 h; HUH7 liver cancer cell line; 6 days. Here is the method: as §1, §2
In experiment [23] the test system is Li-7. As to conditions: 144 h; Li-7 liver cancer cell line; 6 days. On the procedure: as §1, §2
In experiment [24] the test system is JHH5. As to conditions: 144 h; JHH5 liver cancer cell line; 6 days. On the procedure:
as §1, §2

With `Cc1ccc(F)c(NC(=O)Nc2ccc(-c3cccc4c3c(N)nn4C(=O)CCCCCNC(=O)C[C@H](N)C(=O)N[C@@H](CCC(=O)O)C(=O)O)cc2)c1` [Compound 4], the IC50 came out at 38 µM in experiment [1]; 98.8 µM in experiment [2]; 47.5 µM in [3]; 96.2 µM in [4]; 52.6 µM in experiment [5]; 67.7 µM in experiment [6]. Also, the 50% inhibitory concentration (IC50) worked out at 38.2 µM in experiment [7]; 71.4 µM in [8]; 44.2 µM in experiment [9]; 84 µM in experiment [10]; 42.5 µM in [11]; 96.5 µM in [12]. Also, the IC50 in experiment [13] is above 100 µM; in experiment [14], above 100 µM; in [15] it was 99.5 µM; in experiment [16] it was above 100 µM; in experiment [17], 43.8 µM; in experiment [18], 94.5 µM. Further, the IC50 in experiment [19] was above 100 µM; in experiment [20], 38 µM; in [21], above 100 µM; in experiment [22] it was 60 µM; in [23], 47.2 µM; in experiment [24], above 100 µM.

For the molecule `Cc1ccc(F)c(NC(=O)Nc2ccc(-c3cccc4c3c(N)nn4C(=O)C[C@H](N)C(=O)N[C@@H](CCC(=O)N[C@@H](CCC(=O)N[C@@H](CCC(=O)N[C@@H](CCC(=O)O)C(=O)O)C(=O)O)C(=O)O)C(=O)O)cc2)c1` [Compound 2], the IC50 came out at 4.89 µM in experiment [1]; 30 µM in [2]; 2.69 µM in [3]; 3.75 µM in experiment [4]; 4.94 µM in [5]; 4.38 µM in experiment [6]. In addition, the IC50 in [7] was determined as 5.62 µM; in experiment [8], 4.67 µM; in experiment [9], 7.13 µM; in experiment [10] it was 3.46 µM; in experiment [11] it was 5.83 µM; in [12], 5.02 µM. Moreover, the IC50 in [13] came out at 19.4 µM; in experiment [14], 8.91 µM; in experiment [15], 11.3 µM; in [16] it was 7.03 µM; in experiment [17] it was 2.84 µM; in experiment [18], 15.8 µM. Further, the 50% inhibitory concentration (IC50) in experiment [19] stood at 20.4 µM; in experiment [20], 10.3 µM; in experiment [21] it was 14 µM; in experiment [22], 4.32 µM; in experiment [23] it was 7.26 µM; in experiment [24], 21.3 µM.

In the case of `Cc1ccc(F)c(NC(=O)Nc2ccc(-c3cccc4c3c(N)nn4C(=O)CCCCCNC(=O)C[C@H](N)C(=O)O)cc2)c1` [Compound 11], the IC50 in [1] is 26.4 µM; in [2], 87.6 µM; in experiment [3], 55.2 µM; in [4] it was above 100 µM; in [5], 49.4 µM; in experiment [6] it was 54.4 µM. Further, the IC50 in [7] was 23.1 µM; in experiment [8], 60.3 µM; in experiment [9] it was 33.4 µM; in [10] it was 72.8 µM; in experiment [11], 38.7 µM; in experiment [12], 80.4 µM. Besides, the IC50 is above 100 µM in [13]; above 100 µM in experiment [14]; above 100 µM in experiment [15]; above 100 µM in experiment [16]; 82.2 µM in [17]; 77 µM in [18]. In addition, the concentration for half-maximal inhibition (IC50) in experiment [19] was above 100 µM; in [20], 26.5 µM; in [21], 88.4 µM; in experiment [22], 42.2 µM; in experiment [23], 35.1 µM; in experiment [24], 87.7 µM.

Take `Cc1ccc(F)c(NC(=O)Nc2ccc(-c3cccc4c3c(N)nn4C(=O)C[C@H](N)C(=O)N[C@@H](CCC(=O)N[C@@H](CCC(=O)N[C@@H](CCC(=O)N[C@@H](CCC(=O)N[C@@H](CCC(=O)N[C@@H](CCC(=O)N[C@@H](CCC(=O)N[C@@H](CCC(=O)N[C@@H](CCC(=O)O)C(=O)O)C(=O)O)C(=O)O)C(=O)O)C(=O)O)C(=O)O)C(=O)O)C(=O)O)C(=O)O)cc2)c1` [Compound 3]: the IC50 in experiment [1] stood at 7.38 µM; in [2] it was 46.4 µM; in experiment [3] it was 4.72 µM; in experiment [4], 9.06 µM; in experiment [5] it was 7.73 µM; in experiment [6], 7.51 µM. In addition, the IC50 in experiment [7] amounted to 7.33 µM; in [8], 10.4 µM; in [9] it was 16.9 µM; in experiment [10], 7.89 µM; in experiment [11] it was 12.1 µM; in [12], 8.51 µM. Further, the IC50 in experiment [13] turned out to be 40.1 µM; in experiment [14], 13.6 µM; in [15], 21.1 µM; in experiment [16], 11.3 µM; in [17] it was 6.09 µM; in experiment [18], 27.1 µM. Moreover, the IC50 in experiment [19] turned out to be 31.3 µM; in [20], 21.9 µM; in experiment [21], 20.3 µM; in experiment [22], 6.69 µM; in [23], 10.1 µM; in [24], 31 µM.
